The source of these data is ChEMBL document CHEMBL5465560, “Selectivity Literature for EUbOPEN Chemogenomic Library” (2024).

Assay [1] addresses CDK8/Cyclin C (Homo sapiens) (UniProt P49336+P24863). Put plainly: Selectivity interaction (LanthaScreen Eu Kinase Binding Assay) EUB0001632a CDK8. It counts as protein-complex assay. The settings on record: at 10 µM. For orientation: In TR-FRET formats the signal depends on donor and acceptor labels being close together.
For assay [2], the target named is Tyrosine-protein kinase Fer (Homo sapiens) (UniProt P16591). Put plainly: Selectivity interaction (Kinase panel (KiNativ target engagement assay in Jurkat cells)) EUB0001635a FER. As to conditions: Selectivity number of off-targets 0.0, Selectivity number of targets 233.0, Source Knowledge https://www.sciencedirect.com/science/article/pii/S2451945619300674?via%3Dihub, at 1 µM. It counts as cell-based.
Sequence of Tyrosine-protein kinase Fer (Homo sapiens) (P16591 whole entry, looked up): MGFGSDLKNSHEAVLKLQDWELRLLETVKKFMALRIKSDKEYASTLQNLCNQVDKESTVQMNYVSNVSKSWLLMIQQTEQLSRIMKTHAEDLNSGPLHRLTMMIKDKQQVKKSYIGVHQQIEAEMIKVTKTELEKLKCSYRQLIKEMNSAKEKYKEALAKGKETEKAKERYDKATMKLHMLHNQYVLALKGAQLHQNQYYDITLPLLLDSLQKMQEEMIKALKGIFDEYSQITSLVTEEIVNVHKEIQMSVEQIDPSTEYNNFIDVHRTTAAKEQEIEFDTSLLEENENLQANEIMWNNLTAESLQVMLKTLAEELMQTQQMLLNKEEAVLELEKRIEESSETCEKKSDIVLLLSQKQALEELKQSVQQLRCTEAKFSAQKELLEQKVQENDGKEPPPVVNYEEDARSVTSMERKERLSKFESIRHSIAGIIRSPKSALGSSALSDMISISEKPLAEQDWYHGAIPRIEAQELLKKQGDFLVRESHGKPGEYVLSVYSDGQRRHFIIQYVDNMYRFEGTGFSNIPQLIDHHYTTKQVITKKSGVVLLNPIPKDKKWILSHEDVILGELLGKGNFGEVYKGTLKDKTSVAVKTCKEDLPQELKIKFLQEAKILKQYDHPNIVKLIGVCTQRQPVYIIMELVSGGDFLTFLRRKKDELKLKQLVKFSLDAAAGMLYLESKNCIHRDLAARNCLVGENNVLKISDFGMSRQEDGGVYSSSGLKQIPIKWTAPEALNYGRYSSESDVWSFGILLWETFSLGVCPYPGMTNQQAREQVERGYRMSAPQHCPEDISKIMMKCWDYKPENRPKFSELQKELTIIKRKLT

For assay [3], the target named is Cyclin-dependent kinase 7 (Homo sapiens, UniProt P50613). Put plainly: Selectivity interaction (Kinase panel (KiNativ target engagement assay in Jurkat cells)) EUB0001635a CDK7. It counts as cell-based. The settings on record: Selectivity number of off-targets 0.0, Selectivity number of targets 233.0, Source Knowledge https://www.sciencedirect.com/science/article/pii/S2451945619300674?via%3Dihub, at 1 µM.

The target in assay [4] is Cyclin-dependent kinase-like 3 (Homo sapiens) (UniProt Q8IVW4). As to the kind of experiment: Selectivity interaction (Ambit KINOMEscan and KiNATiv profiling in Jurkat cells) EUB0000090b CDKL3. It is filed as cell-based. The settings on record: at 1 µM.
Assay [5] addresses Dual specificity tyrosine-phosphorylation-regulated kinase 1B (Homo sapiens, UniProt Q9Y463). Put plainly: Selectivity interaction (KinomeScan (DiscoverX)) EUB0000666a DYRK1B. The settings on record: at 10 µM.
The target of assay [6] is Cyclin-dependent kinase 9 (Homo sapiens, UniProt P50750). As to the kind of experiment: Selectivity interaction (KinomeScan (DiscoverX)) EUB0001079a CDK9. The settings on record: at 1 µM.
Assay [7] has as its target Inhibitor of nuclear factor kappa-B kinase subunit epsilon (Homo sapiens, UniProt Q14164). Put plainly: Selectivity interaction (Enyzmatic assay) EUB0000601a IKBKE.
In assay [8] the target is Serine/threonine-protein kinase SIK3 (Homo sapiens) (UniProt Q9Y2K2). Put plainly: Selectivity interaction (ActivX KiNativ screen (ex vivo kinase selectivity in human PBMCs)) EUB0001619a SIK3. It counts as cell-based. The settings on record: PBMC, at 1 µM.
For assay [9], the target named is STE20-like serine/threonine-protein kinase (Homo sapiens, UniProt Q9H2G2). As to the kind of experiment: Selectivity interaction (ActivX KiNativ screen (kinase selectivity in THP-1 cell lysates)) EUB0000639a SLK. The settings on record: lysate, at 1 µM. It counts as subcellular.
Sequence of STE20-like serine/threonine-protein kinase (Q9H2G2 whole entry, looked up): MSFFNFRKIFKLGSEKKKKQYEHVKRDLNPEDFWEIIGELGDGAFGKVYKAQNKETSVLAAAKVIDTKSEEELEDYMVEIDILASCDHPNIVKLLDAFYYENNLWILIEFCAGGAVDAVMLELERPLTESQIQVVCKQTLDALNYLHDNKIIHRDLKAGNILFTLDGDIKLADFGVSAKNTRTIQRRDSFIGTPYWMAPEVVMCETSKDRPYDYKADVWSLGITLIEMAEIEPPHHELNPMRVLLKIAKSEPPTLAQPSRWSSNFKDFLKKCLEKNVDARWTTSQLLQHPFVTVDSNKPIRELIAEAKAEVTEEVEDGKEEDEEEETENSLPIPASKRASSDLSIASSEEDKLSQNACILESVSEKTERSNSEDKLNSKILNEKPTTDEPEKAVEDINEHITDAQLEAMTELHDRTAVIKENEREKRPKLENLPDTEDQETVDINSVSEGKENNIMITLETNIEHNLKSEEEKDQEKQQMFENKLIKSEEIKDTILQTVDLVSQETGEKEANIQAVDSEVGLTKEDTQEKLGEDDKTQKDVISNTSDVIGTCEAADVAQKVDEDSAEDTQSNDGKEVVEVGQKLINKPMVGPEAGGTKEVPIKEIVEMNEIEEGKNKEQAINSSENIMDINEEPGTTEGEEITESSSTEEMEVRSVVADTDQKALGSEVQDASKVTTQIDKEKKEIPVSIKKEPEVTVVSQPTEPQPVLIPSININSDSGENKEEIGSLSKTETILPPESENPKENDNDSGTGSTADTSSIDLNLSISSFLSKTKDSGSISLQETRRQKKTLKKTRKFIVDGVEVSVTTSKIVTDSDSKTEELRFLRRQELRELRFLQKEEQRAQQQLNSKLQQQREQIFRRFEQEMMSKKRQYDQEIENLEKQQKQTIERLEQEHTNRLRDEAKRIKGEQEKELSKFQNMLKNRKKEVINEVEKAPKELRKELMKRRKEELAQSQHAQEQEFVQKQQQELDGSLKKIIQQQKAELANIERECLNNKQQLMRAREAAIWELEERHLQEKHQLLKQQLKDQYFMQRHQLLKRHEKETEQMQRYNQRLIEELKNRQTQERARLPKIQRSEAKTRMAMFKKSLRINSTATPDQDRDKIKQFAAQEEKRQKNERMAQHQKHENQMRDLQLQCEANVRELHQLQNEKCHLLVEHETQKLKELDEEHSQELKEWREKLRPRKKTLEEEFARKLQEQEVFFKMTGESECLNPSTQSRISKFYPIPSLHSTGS
Assay [10] concerns the target Tyrosine-protein kinase Fyn (Homo sapiens) (UniProt P06241). Put plainly: Selectivity interaction (ActivX KiNativ screen (kinase selectivity in THP-1 cell lysates)) EUB0000639a FYN. It is filed as subcellular. As to conditions: lysate, at 5 µM.
Assay [11] deals with T1, Serine/threonine-protein kinase Chk1 (Homo sapiens) (UniProt O14757).
T1 sequence (whole entry): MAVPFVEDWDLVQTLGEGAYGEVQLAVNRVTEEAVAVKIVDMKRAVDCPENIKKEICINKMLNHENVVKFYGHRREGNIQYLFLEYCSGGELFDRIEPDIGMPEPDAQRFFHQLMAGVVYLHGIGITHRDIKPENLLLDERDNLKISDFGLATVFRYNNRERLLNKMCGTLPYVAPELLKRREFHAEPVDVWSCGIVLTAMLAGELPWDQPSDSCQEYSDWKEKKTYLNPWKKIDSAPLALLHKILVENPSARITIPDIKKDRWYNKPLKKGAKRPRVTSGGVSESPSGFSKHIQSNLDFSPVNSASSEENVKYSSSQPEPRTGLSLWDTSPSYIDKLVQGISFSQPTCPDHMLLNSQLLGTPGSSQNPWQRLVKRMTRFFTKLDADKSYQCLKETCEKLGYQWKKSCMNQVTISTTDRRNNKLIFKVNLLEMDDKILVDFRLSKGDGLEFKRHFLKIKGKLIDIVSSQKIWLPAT
Put plainly: Selectivity interaction (ActivX KiNativ screen (kinase selectivity in THP-1 cell lysates)) EUB0000639a CHEK1. It is filed as subcellular. The settings on record: lysate.

Assay [12] addresses Tyrosine-protein kinase HCK (Homo sapiens) (UniProt P08631). Put plainly: Selectivity interaction (ActivX KiNativ screen (kinase selectivity in THP-1 cell lysates)) EUB0000639a HCK. It is filed as subcellular. As to conditions: lysate, at 0.04 µM.
The target in assay [13] is Mitogen-activated protein kinase 8 (Homo sapiens, UniProt P45983). As to the kind of experiment: Selectivity interaction (KinomeScan (DiscoverX)) EUB0000695a MAPK8. The settings on record: at 100 nM.
Assay [14] has as its target Transcription initiation factor TFIID subunit 1-like (Homo sapiens) (UniProt Q8IZX4). As to the kind of experiment: Selectivity interaction (Bromodomain panel (DSF asssay)) EUB0000270b TAF1L.
Assay [15] has as its target Mitogen-activated protein kinase 14 (Homo sapiens, UniProt Q16539). Put plainly: Selectivity interaction (KinomeScan (DiscoverX)) EUB0000092b MAPK14. As to conditions: at 10 µM.
Assay [16] deals with T2, Dual specificity mitogen-activated protein kinase kinase 4 (Homo sapiens) (UniProt P45985).
T2 sequence (whole entry): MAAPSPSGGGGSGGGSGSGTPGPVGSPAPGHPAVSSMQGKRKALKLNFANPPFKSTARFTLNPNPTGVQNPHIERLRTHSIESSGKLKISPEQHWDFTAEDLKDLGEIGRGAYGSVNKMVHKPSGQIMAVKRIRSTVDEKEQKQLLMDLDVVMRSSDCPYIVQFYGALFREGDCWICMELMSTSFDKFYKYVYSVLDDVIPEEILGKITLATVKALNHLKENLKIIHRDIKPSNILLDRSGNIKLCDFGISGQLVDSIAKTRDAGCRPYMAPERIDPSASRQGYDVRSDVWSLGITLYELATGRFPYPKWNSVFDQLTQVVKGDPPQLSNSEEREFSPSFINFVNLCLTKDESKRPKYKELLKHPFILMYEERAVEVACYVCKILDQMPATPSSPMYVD
As to the kind of experiment: Selectivity interaction (KinomeScan (DiscoverX)) EUB0001550a MAP2K4. The settings on record: at 1 µM.

For assay [17], the target named is SRSF protein kinase 2 (Homo sapiens) (UniProt P78362). As to the kind of experiment: Selectivity interaction (KinomeScan (DiscoverX)) EUB0000595a SRPK2. As to conditions: at 10 µM.
The subject of assay [18] is Leucine-rich repeat serine/threonine-protein kinase 2 (Homo sapiens), Q5S007 [G2019S]. Put plainly: (§1) Selectivity interaction (KinomeScan (DiscoverX)) EUB0000595a LRRK2. As to conditions: at 10 µM.
The target in assay [19] is Leucine-rich repeat serine/threonine-protein kinase 2 (Homo sapiens, UniProt Q5S007). The description is as §1. As to conditions: at 10 µM.
Sequence of Leucine-rich repeat serine/threonine-protein kinase 2 (Q5S007 whole entry): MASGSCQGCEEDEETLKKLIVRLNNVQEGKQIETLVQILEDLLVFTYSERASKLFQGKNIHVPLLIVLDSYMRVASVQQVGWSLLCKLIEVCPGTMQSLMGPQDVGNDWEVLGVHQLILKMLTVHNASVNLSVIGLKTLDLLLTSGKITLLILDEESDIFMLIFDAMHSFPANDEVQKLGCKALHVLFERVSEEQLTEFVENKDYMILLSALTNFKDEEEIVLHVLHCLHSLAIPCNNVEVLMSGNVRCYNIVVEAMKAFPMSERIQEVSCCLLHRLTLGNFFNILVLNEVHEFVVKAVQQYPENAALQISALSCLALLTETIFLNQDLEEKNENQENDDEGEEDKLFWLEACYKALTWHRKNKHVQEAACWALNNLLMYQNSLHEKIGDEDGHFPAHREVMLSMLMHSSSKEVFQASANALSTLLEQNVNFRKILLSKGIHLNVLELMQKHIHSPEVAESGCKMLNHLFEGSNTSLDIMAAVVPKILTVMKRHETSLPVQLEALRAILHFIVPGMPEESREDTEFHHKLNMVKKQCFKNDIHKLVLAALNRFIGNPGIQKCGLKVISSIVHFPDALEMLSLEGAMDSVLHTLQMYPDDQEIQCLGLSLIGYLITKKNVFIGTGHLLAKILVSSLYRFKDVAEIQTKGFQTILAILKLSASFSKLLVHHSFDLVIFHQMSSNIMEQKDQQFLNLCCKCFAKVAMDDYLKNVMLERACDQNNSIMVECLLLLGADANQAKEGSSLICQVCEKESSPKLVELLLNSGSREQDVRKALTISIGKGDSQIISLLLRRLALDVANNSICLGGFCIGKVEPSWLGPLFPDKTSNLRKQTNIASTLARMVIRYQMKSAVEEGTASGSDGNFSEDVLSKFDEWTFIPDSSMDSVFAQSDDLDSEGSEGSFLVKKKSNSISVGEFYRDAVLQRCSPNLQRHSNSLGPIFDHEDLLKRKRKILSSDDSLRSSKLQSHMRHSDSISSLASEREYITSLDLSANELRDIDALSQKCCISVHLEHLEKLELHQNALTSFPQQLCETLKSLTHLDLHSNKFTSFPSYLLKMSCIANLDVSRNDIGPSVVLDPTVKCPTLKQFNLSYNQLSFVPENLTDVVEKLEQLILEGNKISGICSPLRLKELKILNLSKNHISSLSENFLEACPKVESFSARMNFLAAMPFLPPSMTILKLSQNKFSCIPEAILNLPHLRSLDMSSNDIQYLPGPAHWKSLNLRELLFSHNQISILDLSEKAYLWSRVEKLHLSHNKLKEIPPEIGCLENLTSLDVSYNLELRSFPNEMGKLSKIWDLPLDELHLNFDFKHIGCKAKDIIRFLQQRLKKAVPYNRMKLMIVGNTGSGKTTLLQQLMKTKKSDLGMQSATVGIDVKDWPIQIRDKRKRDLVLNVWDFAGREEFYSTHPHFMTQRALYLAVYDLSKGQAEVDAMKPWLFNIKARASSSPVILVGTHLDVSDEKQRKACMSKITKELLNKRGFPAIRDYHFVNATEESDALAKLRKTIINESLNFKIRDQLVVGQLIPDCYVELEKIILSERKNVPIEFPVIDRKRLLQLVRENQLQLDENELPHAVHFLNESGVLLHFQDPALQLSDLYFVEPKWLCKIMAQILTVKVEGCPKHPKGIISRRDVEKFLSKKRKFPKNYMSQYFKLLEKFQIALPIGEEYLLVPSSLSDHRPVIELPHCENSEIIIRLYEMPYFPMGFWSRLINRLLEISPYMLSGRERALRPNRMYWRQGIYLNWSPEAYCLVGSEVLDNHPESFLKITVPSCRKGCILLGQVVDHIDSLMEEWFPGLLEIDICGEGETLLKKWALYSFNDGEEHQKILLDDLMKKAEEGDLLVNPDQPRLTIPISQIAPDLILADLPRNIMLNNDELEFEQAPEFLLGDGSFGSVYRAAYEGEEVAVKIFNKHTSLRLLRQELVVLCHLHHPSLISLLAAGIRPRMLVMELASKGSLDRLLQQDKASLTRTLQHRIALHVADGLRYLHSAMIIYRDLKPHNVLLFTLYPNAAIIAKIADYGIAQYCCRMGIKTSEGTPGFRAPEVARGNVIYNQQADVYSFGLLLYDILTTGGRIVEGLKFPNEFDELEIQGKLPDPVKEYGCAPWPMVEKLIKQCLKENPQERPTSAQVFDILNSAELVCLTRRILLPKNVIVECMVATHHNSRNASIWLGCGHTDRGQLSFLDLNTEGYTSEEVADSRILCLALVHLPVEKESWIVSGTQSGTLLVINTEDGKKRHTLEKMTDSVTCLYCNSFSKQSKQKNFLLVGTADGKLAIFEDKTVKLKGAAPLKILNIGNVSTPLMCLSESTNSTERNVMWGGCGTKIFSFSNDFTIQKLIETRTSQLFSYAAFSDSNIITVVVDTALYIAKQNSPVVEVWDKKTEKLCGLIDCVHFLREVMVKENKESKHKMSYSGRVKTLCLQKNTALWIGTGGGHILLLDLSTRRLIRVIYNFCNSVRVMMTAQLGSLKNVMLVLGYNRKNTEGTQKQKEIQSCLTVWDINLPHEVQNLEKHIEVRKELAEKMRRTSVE

Structures are written as SMILES.

Sequence of Mitogen-activated protein kinase 14 (Q16539 whole entry): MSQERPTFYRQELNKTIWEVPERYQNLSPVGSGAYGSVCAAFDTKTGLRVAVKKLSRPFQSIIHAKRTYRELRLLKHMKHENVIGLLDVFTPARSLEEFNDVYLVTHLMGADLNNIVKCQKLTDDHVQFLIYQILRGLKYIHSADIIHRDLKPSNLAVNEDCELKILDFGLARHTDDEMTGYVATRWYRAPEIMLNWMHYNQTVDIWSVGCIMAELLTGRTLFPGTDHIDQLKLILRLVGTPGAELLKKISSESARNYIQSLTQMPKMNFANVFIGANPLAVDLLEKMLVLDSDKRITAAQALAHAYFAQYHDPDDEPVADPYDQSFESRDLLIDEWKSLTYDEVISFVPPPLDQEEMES
Sequence of Leucine-rich repeat serine/threonine-protein kinase 2 (Homo sapiens), Q5S007 [G2019S] (Q5S007 whole entry G2019S): as the sequence (Q5S007 whole entry) above, with G2019S counted along it

As for `Cn1cc(-n2cnc3c(NCc4nc5cc(Cl)c(Cl)cc5[nH]4)nc(N4CCOCC4)nc32)cn1`, the % of inhibition in [1] was 17.1%.
On to `C=CC(=O)Nc1ccc(C(=O)Nc2[nH]nc3c2CN(C(=O)N[C@H](CN(C)C)c2ccccc2)C3(C)C)cc1`, for which the figures for the % of engagement in [2] and in assay [3] were -2.6% and 93.3%, respectively.
Turning to `CN(C)C/C=C/C(=O)Nc1ccc(C(=O)N2CCCC(Nc3ncc(Cl)c(-c4c[nH]c5ccccc45)n3)C2)cc1` (stereo not drawn), in assay [4], the % of control amounted to 100%.
Take `O=C(NOC[C@H](O)CO)c1ccc(F)c(F)c1Nc1ccc(I)cc1F`: the % of control in assay [5] came out at 98%.
In turn, `Nc1cnc(N2CCc3cc(S(=O)(=O)Nc4c(F)cc(Cl)cc4F)cc(N4CCCC4=O)c32)nc1` [TP-020n] returned a % of control in [6] of 100%.
In general, IC50 refers to the point on the concentration scale where inhibition reaches its midpoint. Read a low IC50 as higher potency. Take `CCc1cc(Nc2nccc(-c3c(-c4ccc(OC)c(C(=O)Nc5c(F)cccc5F)c4)nc4ccccn34)n2)c(OC)cc1N1CCC(N2CCN(S(C)(=O)=O)CC2)CC1`: in assay [7], the midpoint of inhibition, the IC50, lay at 3.2 µM.
For the molecule `N#Cc1cccc(-c2c[nH]c3ncnc(N4CCOCC4)c23)c1`, the % of inhibition in assay [8] was found to be 14%.
In the case of `CC[C@@H]1[C@H](F)C(=O)N[C@@H]1COc1nccc2cc(C(N)=O)c(OC)cc12` [ZIMLOVISERTIB], the % of inhibition in [9] was -14.8%; in assay [10] it was -13.3%; in assay [11] (at 0.01 µM), -7.6%; in [11] (at 0.04 µM), 11.8%; in [11] (at 0.2 µM), -8.5%; in [11] (at 1 µM), 0.6%. The figures for the % of inhibition in assay [11] (at 5 µM) and in [12] were -18.5% and -8.7%, respectively.
In assay [13], `Cc1cc(F)c(C(=O)Nc2cccc(-c3nncn3C(C)C)n2)cc1-n1cnc(C2CC2)c1` came in with a % of control of 72%.
In assay [14], `Cc1cc(CN)cc(C)c1-c1ncn(C)c1-c1cncn1C` came in with a dTM of -1.79 K.
In turn, `CCC(=O)N1CCN(c2ccc(-n3c(=O)ccc4cnc5ccc(-c6cnc7ccccc7c6)cc5c43)cc2C(F)(F)F)CC1` yielded a % of control in assay [15] of 90%.
Take `CN(C)CC#Cc1ccc2[nH]c3c(c2c1)-c1nc(N)ncc1CCC3`: the % of control in assay [16] amounted to 12%.
Take `COCC(=O)NC/C=C/c1ccc2ncnc(Nc3ccc(Oc4ccc(C)nc4)c(C)c3)c2c1` [CP-724714]: the % of control in [17] was 92%; in [18], 98%; in assay [19] it was 100%.
